{"source": "patent US11046722B2", "about": "“Sulphated disaccharides for the treatment of neuropathic pain” (BIOIBERICA, S.A.U., priority 2017, dated 2021)", "key": {"[1]": {"tested_on": "mechanical allodynia induced in mice by intraplantar capsaicin injection", "test": "Mechanical allodynia induced by intraplantar capsaicin injection (von Frey, latency to paw withdrawal)", "assay_type": "in vivo", "excerpt": "Thus, in Example 1, an experimental trial is described performed on mice with mechanical allodynia induced by intraplantar capsaicin injection, according to the model described in the article by Entrena et al., Antagonism by haloperidol and its metabolites of mechanical hypersensitivity induced by intraplantar capsaicin in mice: role of sigma-1 receptors, Psychopharmacology, 2009, 205, 21-33. This trial is based on hypersensitivity induced in the mice by means of injecting capsaicin in the right hind paw. The allodynia is quantified by measuring the decrease in latency time in the hypersensitized mice until paw withdrawal, when a mechanical stimulus is applied to it.\nFor this trial, 6 groups of mice were used with between 8 and 12 animals in each group. […] 15 minutes after the injection, different mechanical stimuli were applied with a von Frey filament with a force of 0.5 g in an esthesiometer, and the values of the latency time until paw withdrawal were recorded. […]\nIn order to quantify the anti-allodynic effect, a value of 100% allodynia was assigned to the latency time of the animals injected with capsaicin and without pharmacological treatment (only treated with the vehicle). […]"}, "[2]": {"tested_on": "cold allodynia induced in mice by subcutaneous carrageenan injection", "test": "Cold allodynia induced by subcutaneous carrageenan injection (acetone test, time spent licking the paw)", "assay_type": "in vivo", "conditions": "carrageenan 1% 50 μl s.c., 60 mg/Kg orally 3.5 hours after injection, acetone test 45 minutes after treatment", "excerpt": "In Example 4 an experimental model is used of cold allodynia induced in mice by subcutaneous carrageenan injection, as described in the article by Choi et al., Behavioral signs of ongoing pain and cold allodynia in a rat model of neuropathic pain, Pain, 1994, 59 (3), 369-376. This trial is based on causing cold allodynia in mice by subcutaneous carrageenan injection in the plantar surface of one of the hind paws of the animals, and subsequently measuring the sensitivity to cold by applying acetone on the plantar surface of both hind paws: the ipsilateral (the same one where the carrageenan was injected) and the contralateral (the unsensitized hind paw). The sensitivity to cold is quantified by measuring the time the animals spent licking the paw for 5 minutes after the application of the acetone. As described in such example, compound Ic is effective in reversing the cold allodynia according to this model (FIG. 6).\nIn this trial 16 mice were used to which 50 μl of a carrageenan solution at 1% were administered by subcutaneous injection in the plantar surface of one of the hind paws. After 3.5 hours since the injection, 60 mg/Kg of the Ic compound was administered orally to 9 of the animals, while only the vehicle (saline solution) was administered to the remaining 7 (control group). […]"}}, "data": [{"smiles": "CO[C@H]1O[C@H](COS(=O)(=O)[O-])[C@@H](OS(=O)(=O)[O-])[C@H](O[C@@H]2O[C@H](C(=O)[O-])[C@@H](O)[C@H](O)[C@H]2O)[C@H]1NC(C)=O.[Na+].[Na+].[Na+]", "note": "[Compound Ic, methyl 2-acetamido-2-desoxi-3-O-(β-D-glucopyranosyluronic acid)-4,6-di-O-sulfo-α-D-glucopyranoside trisodium salt]", "values": [{"measurement": "anti-allodynic effect", "setting": "[1]; capsaicin 1 μg intraplantar, 3, 10 and 30 mg/Kg by gavage 45 minutes before the trial, effect dose-dependent", "result": "notable anti-allodynic effect"}, {"measurement": "reduction of the allodynia", "setting": "[1]; capsaicin, highest dose 30 mg/Kg by gavage 45 minutes before the trial, 100% = capsaicin + vehicle", "result": "more than 50%"}, {"measurement": "reversal of cold allodynia (ipsilateral paw)", "setting": "[2]", "result": "completely reversed"}]}]}
